According to patent US5821232A, “Synergistic therapeutic compositions and methods” (Pfizer Inc., priority 1995, dated 1998):

How the values were obtained:
Male Hartley guinea pigs = experiment: Mean arterial pressure lowering in conscious sodium-depleted guinea pigs, i.v. dosing; type: in vivo, guinea pig; design: unit not given beside the values; settings: trapezoidal method
Description: Male Hartley guinea pigs weighing between 250 and 300 g were obtained from Charles River Laboratories, Lakeview, New Jersey. The guinea pigs were allowed to acclimate to their environment for at least two weeks. Then, they were placed on a low sodium diet (Purina Modified Guinea Pig Chow, no sodium added) for 14 days and were given injections of furosemide (Lasix® 2 mg/kg, i.m.) on three non-consecutive days. At least 24 hours prior to experimentation, the animals were anesthetized with xylazine (Rompune, 10 mg/kg, s.c.) and ketamine (Vetalar®, 80 mg/kg, i.m.) and, using aseptic technique, cannulae (PE-50) were implanted into the aorta via the right carotid artery for direct measurement of mean arterial pressure (MAP). Cannulae (PE-50) were also placed into the left jugular vein for intravenous compound administration. Both catheters were exteriorized at the intrascapular region of the animal's back and flushed with a heparinized dextrose solution. To prevent the formation of clots, each cannula was filled with heparin at a concentration of 1000 units/ml. After surgery, an antibacterial, trimethoprim/sulfamethoxazole (Di-Trim®, 30 mg/kg, s.c.), was given to the animals. The animals were allowed to recover with water and no-sodium chow administered ad libitum. On the day of the experiment, each guinea pig was given an additional injection of furosemide (6 mg/kg, i.m.) to accelerate sodium loss and was placed in a sound-proof, ventilated box with one-way glass for observation. Mean arterial pressure was monitored with a Statham 23DB strain gauge pressure transducer previously calibrated using a mercury manometer. The arterial pressure waveform and derived heart rate were continuously recorded on a Grass Model 7D oscillograph. Arterial pressure waveform samples were obtained approximately every 20 seconds using an IBM PS/2 model 30 computer equipped with a custom algorithm designed to calculate mean arterial pressure from the integrated waveform. Values were obtained for a period of at least one hour prior to and 2 hours (usually 4 hours) after dosing. The test compounds were infused intravenously followed by a 250 μl flush with heparinized dextrose solution.
Dose response curves for the renin inhibitor (RI) (0.3 to 3.0 mg/kg, i.v.) and captopril (0.03 to 1.0 mg/kg, i.v.) were obtained (n =4 to 8) in order to quantitate baseline responses to each drug. In experiments where the renin inhibitor and captopril were co-administered, the renin inhibitor was given first immediately followed by captopril. Doses of renin inhibitor and angiotensin converting enzyme inhibitor, when given together, were chosen on the basis of causing submaximal hypotensive effects. Therefore, the contributory effect of each drug could be quantitated by integration and compared to the expected effect to determine whether additive or synergistic responses had occurred.
Employing the procedure described above, the changes in mean arterial pressure (AMAP) for the renin inhibitor (RI), the ACE inhibitor (captopril) and the renin inhibitor (RI), plus the ACE inhibitor (captopril) were obtained for various doses and are shown in Table I, below. The AOC-MAP is the area over the dose response curve for each dose calculated using the trapezoidal method.
The data in Table I were obtained by averaging the A MAP of all animals for each dose prior to calculating the AOC-MAP. When the data contained in Table I was reviewed for the purpose of calculating the AOC-MAP by averaging the area over the dose response curve for each animal per dose, it was discovered that the AOC-MAP for 0.5 mg/kg RI plus 0.05 mg/kg captopril inadvertently reflected the data based on only three of the six subject test animals. Shown below in Table II are the AOC-MAP data for the experiments reported in Table I, which data is now the result of determining the area over the dose response curve for each animal per dose and averaging the AOC-MAP, as well as determining the standard deviation. […]

[1] = Oldham et al., J. Cardiovasc. Pharmacol. 6: 672-677 (1984); cited from earlier work
[2] = Table III, 0.3 mg/kg i.v., average of area per animal
[3] = Table III, 1.0 mg/kg i.v., average of area per animal
[4] = Table I, 0.3 mg/kg i.v., area over curve from MAP change averaged over all animals per dose
[5] = Table I, 1.0 mg/kg i.v., area over curve from MAP change averaged over all animals per dose
[6] = Table II, 0.3 mg/kg i.v., average of area per animal (± standard deviation)
[7] = Table II, 1.0 mg/kg i.v., average of area per animal (± standard deviation)

Compound: CCCCc1nc(Cl)c(CO)n1Cc1ccc(-c2ccccc2-c2nn[nH]n2)cc1 [Dup 753]
- AOC-MAP (Male Hartley guinea pigs; [2]): -125 (±31)
- AOC-MAP (Male Hartley guinea pigs; [3]): -549 (±96)
- AOC-MAP (Male Hartley guinea pigs; Table III, 3.0 mg/kg i.v., average of area per animal): -1575 (±281)

Compound: C[C@H](CS)C(=O)N1CCC[C@H]1C(=O)O [captopril]
- hypotensive effect of captopril injection during H77 infusion [1]: small additional hypotensive effect
- AOC-MAP (Male Hartley guinea pigs; Table I, 0.03 mg/kg i.v., area over curve from MAP change averaged over all animals per dose): -99
- AOC-MAP (Male Hartley guinea pigs; Table I, 0.10 mg/kg i.v., area over curve from MAP change averaged over all animals per dose): -289
- AOC-MAP (Male Hartley guinea pigs; [4]): -1263
- AOC-MAP (Male Hartley guinea pigs; [5]): -3272
- AOC-MAP (Male Hartley guinea pigs; Table II, 0.03 mg/kg i.v., average of area per animal (± standard deviation)): -96 (±16)
- AOC-MAP (Male Hartley guinea pigs; Table II, 0.10 mg/kg i.v., average of area per animal (± standard deviation)): -283 (±24)
- AOC-MAP (Male Hartley guinea pigs; [6]): -1036 (±145)
- AOC-MAP (Male Hartley guinea pigs; [7]): -3272 (±350)
- AOC-MAP (Male Hartley guinea pigs; Table III, 0.03 mg/kg i.v., average of area per animal): -96 (±16)
- AOC-MAP (Male Hartley guinea pigs; Table III, 0.10 mg/kg i.v., average of area per animal): -269 (±18)
- AOC-MAP (Male Hartley guinea pigs; [2]): -826 (±128)
- AOC-MAP (Male Hartley guinea pigs; [3]): -3272 (±350)

Compound: [alpha-R[alpha-R*, beta-S*(S*,S*)]-alpha-hydroxy-beta-[[2-[[2 -(4-morpholin-1-carboxamido)-1-oxo-3 -phenylpropyllaminol-3 -methylthio-l-oxo-propyl]amino]-cyclohexanebutanoic acid, isopropyl ester [RI]
- AOC-MAP (Male Hartley guinea pigs; [4]): -256
- AOC-MAP (Male Hartley guinea pigs; [5]): -496
- AOC-MAP (Male Hartley guinea pigs; Table I, 3.0 mg/kg i.v., area over curve from MAP change averaged over all animals per dose): -1829
- AOC-MAP (Male Hartley guinea pigs; [6]): -310 (±47)
- AOC-MAP (Male Hartley guinea pigs; [7]): -568 (±158)
- AOC-MAP (Male Hartley guinea pigs; Table II, 3.0 mg/kg i.v., average of area per animal (± standard deviation)): -1990 (±408)
